Data taken from patent US8835428B2, “Diacylglycerol acyltransferase inhibitors” (Piramal Enterprises Limited, priority 2008, dated 2014).

Target: T1, hDGAT1 (Homo sapiens, UniProt O75907)
T1 construct: host or cells: Sf9 insect cells (baculovirus); microsomal preparation
T1 sequence (O75907 1-488): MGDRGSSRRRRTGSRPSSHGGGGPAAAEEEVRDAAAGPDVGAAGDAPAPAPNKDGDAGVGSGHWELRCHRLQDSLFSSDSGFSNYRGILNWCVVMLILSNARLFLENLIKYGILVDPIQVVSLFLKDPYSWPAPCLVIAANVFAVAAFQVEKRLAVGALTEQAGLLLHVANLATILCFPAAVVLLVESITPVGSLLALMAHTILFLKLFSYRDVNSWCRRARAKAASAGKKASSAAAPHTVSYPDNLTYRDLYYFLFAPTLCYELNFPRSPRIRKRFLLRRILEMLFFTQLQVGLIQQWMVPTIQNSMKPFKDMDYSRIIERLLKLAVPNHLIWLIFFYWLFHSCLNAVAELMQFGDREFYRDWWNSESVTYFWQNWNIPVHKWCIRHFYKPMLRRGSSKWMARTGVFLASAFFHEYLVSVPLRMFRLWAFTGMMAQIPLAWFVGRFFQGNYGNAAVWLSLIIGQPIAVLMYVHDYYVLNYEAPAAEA
Assay: In-vitro DGAT1 assay (hDGAT1 microsomes from Sf9 cells, 14C oleoyl CoA, triglyceride formation)
Type: biochemical
How it was run: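 Compounds tested in duplicate at 10, 5 and 1 μM for 10 min at 37 °C. Reaction: Sf9-expressed hDGAT1 microsomes (2.5–10 μg), [14C]oleoyl-CoA plus 409.5–1638 μM dioleoylglycerol, pH 7.4 Tris-HCl with fatty-acid-free BSA. Radiolabelled triglyceride extracted into heptane and scintillation-counted.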

Row | SMILES | inhibition at 1 µM (At 1 μM) [%] | other results
1 | COC(=O)[C@H](C(C)C)N(C)C(=O)c1cc(-c2ccc(NC(=O)Nc3ccc(F)cc3)cc2)no1 [Example 307, (S)-methyl 2-(3-(4-(3-(4-fluorophenyl)ureido)phenyl)-N-methylisoxazole-5-carboxamido)-3-methylbutanoate] | 50 to 75 | 
2 | CC(C)[C@@H](C(=O)O)N(C)C(=O)c1cc(-c2ccc(NC(=O)Nc3ccc(F)cc3)cc2)no1 [Example 308, (S)-2-(3-(4-(3-(4-fluorophenyl)ureido)phenyl)-N-methylisoxazole-5-carboxamido)-3-methylbutanoic acid] | 50 to 75 | 
3 | COC(=O)[C@H](C(C)C)N(C)C(=O)c1cc(-c2ccc(NC(=O)Nc3cccc(C(F)(F)F)c3)cc2)no1 [Example 309, (S)-methyl 3-methyl-2-(N-methyl-3-(4-(3-(3-(trifluoromethyl)phenyl)ureido)phenyl)isoxazole-5-carboxamido)butanoate] | 50 to 75 | 
4 | CC(C)[C@@H](C(=O)O)N(C)C(=O)c1cc(-c2ccc(NC(=O)Nc3cccc(C(F)(F)F)c3)cc2)no1 [Example 310, (S)-3-methyl-2-(N-methyl-3-(4-(3-(3-(trifluoromethyl)phenyl)ureido)phenyl)isoxazole-5-carboxamido)butanoic acid] | 50 to 75 | 
5 | COC(=O)[C@H](C(C)C)N(C)C(=O)c1cc(-c2ccc(NC(=O)NC3CCCCC3)cc2)no1 [Example 311, (S)-methyl 2-(3-(4-(3-cyclohexylureido)phenyl)-N-methylisoxazole-5-carboxamido)-3-methylbutanoate] | 50 to 75 | 
6 | CC(C)[C@@H](C(=O)O)N(C)C(=O)c1cc(-c2ccc(NC(=O)NC3CCCCC3)cc2)no1 [Example 312, (S)-2-(3-(4-(3-cyclohexylureido)phenyl)-N-methylisoxazole-5-carboxamido)-3-methylbutanoic acid] | 0 to 50 | 
7 | COC(=O)[C@H](NC(=O)c1cc(-c2ccc(NS(=O)(=O)c3c(F)cccc3F)cc2)no1)C(C)C [Example 316, (R)-Methyl 2-(3-(4-(2,6-difluorophenylsulfonamido)phenyl)isoxazole-5-carboxamido)-3-methylbutanoate] | 0 to 50 | 
8 | COC(=O)[C@H](NC(=O)c1cc(-c2ccc(NS(=O)(=O)c3ccc(C(F)(F)F)cc3)cc2)no1)C(C)C [Example 318, (R)-methyl 3-methyl-2-(3-(4-(4-(trifluoromethyl)phenylsulfonamido)phenyl)isoxazole-5-carboxamido)butanoate] | 0 to 50 | 
9 | CC(C)[C@@H](NC(=O)c1cc(-c2ccc(NS(=O)(=O)c3ccc(C(F)(F)F)cc3)cc2)no1)C(=O)O [Example 319, (R)-3-methyl-2-(3-(4-(4-(trifluoromethyl)phenylsulfonamido)phenyl)isoxazole-5-carboxamido)butanoic acid] | 0 to 50 | 
10 | CC(C)[C@@H](NC(=O)c1cc(-c2ccc(NS(=O)(=O)c3cc(F)cc(F)c3)cc2)no1)C(=O)O [Example 320, (R)-2-(3-(4-(3,5-Difluorophenylsulfonamido)phenyl)isoxazole-5-carboxamido)-3-methylbutanoic acid] | 0 to 50 | 
11 | CC(C)C(NC(=O)c1cc(-c2ccc(OCc3ccccc3)cc2)no1)C(=O)O (stereo not shown) [Example 322, 2-(3-(4-(Benzyloxy)phenyl)isoxazole-5-carboxamido)-3-methylbutanoic acid] | 0 to 50 | 
12 | CC(C)C(NC(=O)c1cc(-c2ccc(OCc3cccc(C(F)(F)F)c3)cc2)no1)C(=O)O (stereo not shown) [Example 326, 3-Methyl-2-(3-(4-(3-(trifluoromethyl)benzyloxy)phenyl)isoxazole-5-carboxamido)butanoic acid] | 0 to 50 | 
13 | COC(=O)C(NC(=O)c1cc(-c2ccc(OCc3ccccc3C(F)(F)F)cc2)no1)C(C)C (stereo not shown) [Example 329, Methyl 3-methyl-2-(3-(4-(2-(trifluoromethyl)benzyloxy)phenyl)isoxazole-5-carboxamido)butanoate] | 0 to 50 | 
14 | CC(C)C(NC(=O)c1cc(-c2ccc(OCc3ccccc3C(F)(F)F)cc2)no1)C(=O)O (stereo not shown) [Example 330, 3-Methyl-2-(3-(4-(2-(trifluoromethyl)benzyloxy)phenyl)isoxazole-5-carboxamido)butanoic acid] | 0 to 50 | 
15 | CC(C)C(NC(=O)c1cc(-c2ccc(OCc3ccc(F)cc3F)cc2)no1)C(=O)O (stereo not shown) [Example 332] |  | % inhibition of hDGAT1 (At 1 μM): + (>0% Inhibition ≦50)
16 | CC(C)C(NC(=O)c1cc(-c2ccc(Oc3nc4ccc(F)cc4s3)cc2)no1)C(=O)O (stereo not shown) [Example 335, 2-(3-(4-(6-fluorobenzo[d]thiazol-2-yloxy)phenyl)isoxazole-5-carboxamido)-3-methylbutanoic acid] | 0 to 50 | 
17 | CC(C)[C@H](NC(=O)c1nc(-c2ccc(NC(=O)Nc3ccc(F)cc3)cc2)no1)C(=O)O [Example 343, (S)-2-(3-(4-(3-(4-Fluorophenyl)ureido)phenyl)-1,2,4-oxadiazole-5-carboxamido)-3-methylbutanoic acid] |  | inhibition at 5 µM: 50 to 75%
18 | COC(=O)[C@@H](NC(=O)c1nc(-c2ccc(NC(=O)Nc3ccc(OC)cc3)cc2)no1)C(C)C [Example 344, (S)-Methyl 2-(3-(4-(3-(4-methoxyphenyl)ureido)phenyl)-1,2,4-oxadiazole-5-carboxamido)-3-methylbutanoate] |  | inhibition at 5 µM: 0 to 50%
19 | COc1ccc(NC(=O)Nc2ccc(-c3noc(C(=O)N[C@H](C(=O)O)C(C)C)n3)cc2)cc1 [Example 345, (S)-2-(3-(4-(3-(4-methoxyphenyl)ureido)phenyl)-1,2,4-oxadiazole-5-carboxamido)-3-methylbutanoic acid] |  | inhibition at 5 µM: 50 to 75%
20 | COC(=O)[C@@H](NC(=O)c1nc(-c2ccc(NC(=O)Nc3ccc(C)cc3)cc2)no1)C(C)C [Example 346, (S)-Methyl 3-methyl-2-(3-(4-(3-p-tolylureido)phenyl)-1,2,4-oxadiazole-5-carboxamido)butanoate] |  | inhibition at 5 µM: 50 to 75%
21 | Cc1ccc(NC(=O)Nc2ccc(-c3noc(C(=O)N[C@H](C(=O)O)C(C)C)n3)cc2)cc1 [Example 347, (S)-3-Methyl-2-(3-(4-(3-p-tolylureido)phenyl)-1,2,4-oxadiazole-5-carboxamido)butanoic acid] |  | inhibition at 5 µM: 50 to 75%
22 | COC(=O)[C@@H](NC(=O)c1nc(-c2ccc(NC(=O)Nc3ccccc3F)cc2)no1)C(C)C [Example 348, (S)-methyl 2-(3-(4-(3-(2-fluorophenyl)ureido)phenyl)-1,2,4-oxadiazole-5-carboxamido)-3-methylbutanoate] |  | inhibition at 5 µM: 0 to 50%
23 | CC(C)[C@H](NC(=O)c1nc(-c2ccc(NC(=O)Nc3ccccc3F)cc2)no1)C(=O)O [Example 349, (S)-2-(3-(4-(3-(2-Fluorophenyl)ureido)phenyl)-1,2,4-oxadiazole-5-carboxamido)-3-methylbutanoic acid] |  | inhibition at 5 µM: 50 to 75%

Now from value to molecule, other results behind:

Row | inhibition at 1 µM (At 1 μM) [%] | SMILES | other results
24 | 50 to 75 | COC(=O)[C@H](C(C)C)N(C)C(=O)c1cc(-c2ccc(NC(=O)Nc3ccccc3F)cc2)no1 [Example 305, (S)-Methyl 2-(3-(4-(3-(2-fluorophenyl)ureido)phenyl)-N-methylisoxazole-5-carboxamido)-3-methylbutanoate] | 
25 | 50 to 75 | CC(C)[C@@H](C(=O)O)N(C)C(=O)c1cc(-c2ccc(NC(=O)Nc3ccccc3F)cc2)no1 [Example 306, (S)-2-(3-(4-(3-(2-fluorophenyl)ureido)phenyl)-N-methylisoxazole-5-carboxamido)-3-methylbutanoic acid] | 
26 | 50 to 75 | CC(C)[C@@H](C(=O)O)N(C)C(=O)c1cc(-c2ccc(NC(=O)Nc3ccccc3Cl)cc2)no1 [Example 314, (S)-2-(3-(4-(3-(2-chlorophenyl)ureido)phenyl)-N-methylisoxazole-5-carboxamido)-3-methylbutanoic acid] | 
27 | 0 to 50 | COC(=O)[C@H](NC(=O)c1cc(-c2ccc(NS(=O)(=O)c3ccccc3F)cc2)no1)C(C)C [Example 315, (R)-methyl 2-(3-(4-(2-fluorophenylsulfonamido)phenyl)isoxazole-5-carboxamido)-3-methylbutanoate] | 
28 | 0 to 50 | CC(C)[C@@H](NC(=O)c1cc(-c2ccc(NS(=O)(=O)c3c(F)cccc3F)cc2)no1)C(=O)O [Example 317, (R)-2-(3-(4-(2,6-Difluorophenylsulfonamido)phenyl)isoxazole-5-carboxamido)-3-methylbutanoic acid] | 
29 | 0 to 50 | CC(C)C(NC(=O)c1cc(-c2ccc(NC(=O)C(=O)Nc3cccc(C(F)(F)F)c3)cc2)no1)C(=O)O (stereo not shown) [Example 337, 3-Methyl-2-(3-(4-(2-oxo-2-(3-(trifluoromethyl)phenylamino)acetamido)phenyl)isoxazole-5-carboxamido)butanoic acid] | 
30 | 0 to 50 | CC(C)C(NC(=O)c1cc(-c2ccc(NC(=O)C(=O)Nc3ccc(F)cc3F)cc2)no1)C(=O)O (stereo not shown) [Example 339, 2-(3-(4-(2-(2,4-difluorophenylamino)-2-oxoacetamido)phenyl)isoxazole-5-carboxamido)-3-methylbutanoic acid] | 
31 | 0 to 50 | CC(C)C(NC(=O)c1cc(-c2ccc(NC(=O)[C@H](O)c3ccccc3)cc2)no1)C(=O)O (stereo partly drawn) [Example 341, 2-(3-(4-((R)-2-hydroxy-2-phenylacetamido)phenyl)isoxazole-5-carboxamido)-3-methylbutanoic acid] | 
